In patent US6872574B2, “Proteomic analysis” (The Scripps Research Institute, priority 2000, dated 2005):

Assays:
[1] = target: T1, cALDH-I (Rattus norvegicus, UniProt P51647); type: binding
T1 construct: made in house; host or cells: E. coli BL-21
T1 sequence (P51647 1-501): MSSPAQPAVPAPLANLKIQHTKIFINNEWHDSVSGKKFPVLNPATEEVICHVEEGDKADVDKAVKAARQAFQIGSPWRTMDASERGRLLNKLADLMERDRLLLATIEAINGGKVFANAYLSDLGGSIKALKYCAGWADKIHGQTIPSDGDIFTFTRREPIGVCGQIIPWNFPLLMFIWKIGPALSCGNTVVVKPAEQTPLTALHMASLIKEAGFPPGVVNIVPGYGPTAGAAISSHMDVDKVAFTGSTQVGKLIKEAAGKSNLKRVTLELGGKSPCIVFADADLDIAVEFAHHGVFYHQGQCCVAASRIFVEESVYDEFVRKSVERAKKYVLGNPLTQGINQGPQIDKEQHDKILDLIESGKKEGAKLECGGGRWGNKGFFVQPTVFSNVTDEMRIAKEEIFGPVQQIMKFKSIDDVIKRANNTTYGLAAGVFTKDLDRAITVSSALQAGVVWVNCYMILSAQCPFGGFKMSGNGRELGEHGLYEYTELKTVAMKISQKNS

[2] = system: rat testis proteome; type: binding
[3] = target: T1, cALDH-I; assay: cALDH-I enzyme assay and inhibition studies; type: biochemical
Experimental: (§1) cALDH-I activity was determined at 25° C. in Tris buffer (20 mM Tris-HCl, pH 8, 100 mM NaCl). Purified cALDH-I (0.2 μM) was preincubated with 15 (2.5 μM-15 μM) in DMSO (30 μL, 3% total incubation vol) in a volume of 950 μL for 5 to 45 min. After preincubation of the enzyme with inhibitor, remaining catalytic activity was measured by adding NAD^+ (500 μM final concentration) and propionaldehyde (1 mM final concentration) in 50 μL of buffer. Production of NADH from the oxidation of propionaldehyde was monitored by measuring the change in absorbance at 340 nm for 2 min. In substrate competition assays, purified cALDH-I (0.2 μM) was preincubated with either NAD^+ (50 μM) or propionaldehyde (25 μM) and 10 μM of 15 for 10 minutes at 25° C. in a volume of 950 μL. Remaining catalytic activity was monitored as described above.

[4] = pH 8
[5] = system: serine hydrolases; type: binding, rat
[6] = system: trypsin; type: binding
[7] = substrate: CCC=O; assay: cALDH-I enzyme assay and inhibition studies; type: biochemical, rat; details: other: His-tagged recombinant cALDH-I; pH 8.0; 25.0 °C
Experimental: as §1

O=C(CCCCCCCCCOS(=O)(=O)c1ccccn1)NCCCCCNC(=O)CCCC[C@@H]1SC[C@@H]2NC(=O)N[C@@H]21 [Sulfonate 1, 10-((2-Pyridylsulfonyl)oxo)-N-biotinamidopentyldecanamide]
labeling of 55-kDa protein in cALDH-I-transfected cells [1]: labeled strongly

COc1ccc(S(=O)(=O)OCCCCCCCCCC(=O)NCCCCCNC(=O)CCCCC2SCC3NC(=O)NC32)cc1 (stereo not drawn) [Sulfonate 4, 10-((4-Methoxybenzenesulfonyl)oxo)-N-biotinamidopentyldecanamide]
nonspecific (heat-insensitive) proteome reactivity [2]: significant additional reactivity with the preheated proteome

CS(=O)(=O)OCCCCCCCCCC(=O)NCCCCCNC(=O)CCCCC1SCC2NC(=O)NC21 (stereo not drawn) [Sulfonate 5, 10-((Methylsulfonyl)oxo)-N-biotinamidopentyldecanamide]
nonspecific (heat-insensitive) proteome reactivity [2]: significant additional reactivity with the preheated proteome

CCCCCCCCS(=O)(=O)OCCCCCCCCCC(=O)NCCCCCNC(=O)CCCC[C@@H]1SC[C@@H]2NC(=O)N[C@@H]21 [Sulfonate 7, 10-((Octylsulfonyl)oxo)-N-biotinamidopentyldecanamide]
specific (heat-sensitive) proteome reactivity [2]: All sulfonates except the octylsulfonate 7 labeled at least one member of the testis proteome in a heat-sensitive manner

O=C(CCCCCCCCCOS(=O)(=O)c1ccc([N+](=O)[O-])cc1)NCCCCCNC(=O)CCCCC1SCC2NC(=O)NC21 (stereo not drawn) [Sulfonate 8, 10-((4-Nitrobenzenesulfonyl)oxo)-N-biotinamidopentyldecanamide]
specific (heat-sensitive) proteome reactivity [2]: reacted specifically with a 55 kDa protein, as well as two additional proteins

O=C(CCCCCCCCCOS(=O)(=O)c1cccc2cccnc12)NCCCCCNC(=O)CCCCC1SCC2NC(=O)NC21 (stereo not drawn) [Sulfonate 9, 10-((8-Quinolinesulfonyl)oxo)-N-biotinamidopentyldecanamide]
specific (heat-sensitive) proteome reactivity [2]: reacted specifically with a 55 kDa protein, as well as two additional proteins

O=C(CCCCCCCCCOS(=O)(=O)c1cccs1)NCCCCCNC(=O)CCCCC1SCC2NC(=O)NC21 (stereo not drawn) [Sulfonate 11]
specific (heat-sensitive) proteome reactivity [2]: reacted specifically with a 55 kDa protein, as well as two additional proteins

CCCCCCCCOS(=O)(=O)c1ccccn1 [Sulfonate 15, 1-(2-Pyridylsulfonyl)oxo-octane]
average Kobs/[I] [3]: (9.7+1.8)×10^3 M^−1min^−1
stability to assay conditions [4]: stable to the assay conditions employed

B1: STI: Kunitz-type serine protease inhibitor, soybean trypsin inhibitor (protein, UniProt P01070 25-205, looked up)
Trypsin inhibitor A: DFVLDNEGNPLENGGTYYILSDITAFGGIRAAPTGNERCPLTVVQSRNELDKGIGTIISSPYRIRFIAEGHPLSLKFDSFAVIMLCVGIPTEWSVVEDLPEGPAVKIGENKDAMDGWFRLERVSDDEFNNYKLVFCPQQAEDDKCGDIGISIDHDDGTRRLVVSKNKPLVVQFQKLDKESL
FP-biotin labeling intensities in STI-treated sample [5]: several, but not all FP-biotin reactive proteins showed significantly lower labeling intensities
FP-biotin labeling of trypsin preincubated with STI [6]: did not label

B2: cALDH-I (Rattus norvegicus) (protein)
chain: T1 sequence (P51647 1-501)
notes: made in house; host or cells: E. coli BL-21
Km [7]: 4.2 µM
